These are literature values, as cited in PubChem BioAssay AID1259409 (Chemical Carcinogenesis Research Information System (CCRIS), 2018).

Each structure is given as a SMILES string.

This data set has as its system rodent chemically induced tumor inhibition, incidence and multiplicity. Description: CCRIS tumor inhibitor studies.

For the molecule `CC(C)=CCC/C(C)=C/COc1ccc2ccc(=O)oc2c1`, the “tumour outcome (control, treated, inhibition, significance)” value is recorded as 60%, 34%, 43%, not significant (Carcinogen: AZOXYMETHANE, 25843-45-2, Dose [Inhibitor]: 0, 0.01% IN DIET FOR 4 WK BEGINNING 1 WK PRIOR TO CARCINOGEN TREATMENT (STUDY DURATION: 38 WK), Route [Inhibitor]: ORAL, Species: RAT, Strain/Sex: F344/MALE, Target Tissue: Type of Lesion: COLON: ADENOCARCINOMA, Dose [Carcinogen]: 15 MG/KG BW 1/WK FOR 3 WK, Promoter: NONE); 60%, 24%, 60%, p<0.021 (Carcinogen: AZOXYMETHANE, 25843-45-2, Dose [Inhibitor]: 0, 0.01% IN DIET FOR 34 WK BEGINNING 1 WK POST LAST CARCINOGEN DOSE (STUDY DURATION: 38 WK), Route [Inhibitor]: ORAL, Species: RAT, Strain/Sex: F344/MALE, Target Tissue: Type of Lesion: COLON: ADENOCARCINOMA, Dose [Carcinogen]: 15 MG/KG BW 1/WK FOR 3 WK, Promoter: NONE); 60%, 20%, 67%, p<0.0075 (Carcinogen: AZOXYMETHANE, 25843-45-2, Dose [Inhibitor]: 0, 0.05% IN DIET FOR 4 WK BEGINNING 1 WK PRIOR TO CARCINOGEN TREATMENT (STUDY DURATION: 38 WK), Route [Inhibitor]: ORAL, Species: RAT, Strain/Sex: F344/MALE, Target Tissue: Type of Lesion: COLON: ADENOCARCINOMA, Dose [Carcinogen]: 15 MG/KG BW 1/WK FOR 3 WK, Promoter: NONE); 60%, 20%, 67%, p<0.0075 (Carcinogen: AZOXYMETHANE, 25843-45-2, Dose [Inhibitor]: 0, 0.05% IN DIET FOR 34 WK BEGINNING 1 WK POST LAST CARCINOGEN DOSE (STUDY DURATION: 38 WK), Route [Inhibitor]: ORAL, Species: RAT, Strain/Sex: F344/MALE, Target Tissue: Type of Lesion: COLON: ADENOCARCINOMA, Dose [Carcinogen]: 15 MG/KG BW 1/WK FOR 3 WK, Promoter: NONE); 46%, 46%, 0% (Carcinogen: DIETHYLNITROSAMINE [55-18-5], Dose [Inhibitor]: 500 PPM IN DIET FOR 7 WKS, STARTING 1 WK BEFORE CARCINOGEN (STUDY DURATION: 32 WKS), Route [Inhibitor]: DIET, Species: RAT, Strain/Sex: F344/MALE, Target Tissue: Type of Lesion: LIVER: ADENOMA, Dose [Carcinogen]: 40 PPM FOR 5 WKS (STUDY DURATION: 32 WKS)); 100%, 63%, 37% (Carcinogen: DIETHYLNITROSAMINE [55-18-5], Dose [Inhibitor]: 500 PPM IN DIET FOR 7 WKS, STARTING 1 WK BEFORE CARCINOGEN (STUDY DURATION: 32 WKS), Route [Inhibitor]: DIET, Species: RAT, Strain/Sex: F344/MALE, Target Tissue: Type of Lesion: LIVER: CARCINOMA, Dose [Carcinogen]: 40 PPM FOR 5 WKS (STUDY DURATION: 32 WKS)). Further, the “tumour outcome (control, treated, inhibition, significance)” value is given as 46%, 42%, 8.7% (Carcinogen: DIETHYLNITROSAMINE [55-18-5], Dose [Inhibitor]: 500 PPM IN DIET FOR 25 WKS BEGINNING 1 WK AFTER END OF CARCINOGEN TREATMENT, Route [Inhibitor]: DIET, Species: RAT, Strain/Sex: F344/MALE, Target Tissue: Type of Lesion: LIVER: ADENOMA, Dose [Carcinogen]: 40 PPM FOR 5 WKS (STUDY DURATION: 32 WKS)) and 100%, 33%, 67% (Carcinogen: DIETHYLNITROSAMINE [55-18-5], Dose [Inhibitor]: 500 PPM IN DIET FOR 25 WKS BEGINNING 1 WK AFTER END OF CARCINOGEN TREATMENT, Route [Inhibitor]: DIET, Species: RAT, Strain/Sex: F344/MALE, Target Tissue: Type of Lesion: LIVER: CARCINOMA, Dose [Carcinogen]: 40 PPM FOR 5 WKS (STUDY DURATION: 32 WKS)).

As to `CCCCCCCCCCCCCCCC(=O)OCC1(O)CC23CC[C@@H]4c5ccoc5C=CC4(C)C2CCC1C3` (stereo partly specified), the “tumour outcome (control, treated, inhibition, significance)” value by setting is: (Carcinogen: 7,12-DIMETHYLBENZ[A]ANTHRACENE, 57-97-6, Dose [Inhibitor]: 0, 60 MG 1/D FOR 3 D BEGINNING 3 D PRIOR TO CARCINOGEN DOSE (STUDY DURATION: 20 WK), Route [Inhibitor]: GAVAGE, Species: RAT, Strain/Sex: SPRAGUE-DAWLEY/FEMALE, Target Tissue: Type of Lesion: MAMMARY GLAND: TUMOR, Dose [Carcinogen]: 12 MG IN 1 ML OLIVE OIL ONCE, Promoter: NONE USED) 84%, 56%, 33%, p<0.05; (Carcinogen: 7,12-DIMETHYLBENZ[A]ANTHRACENE, 57-97-6, Dose [Inhibitor]: 0, 60 MG ONCE 4 HR PRIOR TO CARCINOGEN DOSE (STUDY DURATION: 20 WK), Route [Inhibitor]: GAVAGE, Species: RAT, Strain/Sex: SPRAGUE-DAWLEY/FEMALE, Target Tissue: Type of Lesion: MAMMARY GLAND: TUMOR, Dose [Carcinogen]: 12 MG IN 1 ML OLIVE OIL ONCE, Promoter: NONE USED) 84%, 63%, 25%, p<0.05.

Take `CC(C)=CCC1=C(O)[C@@](O)(CC=C(C)C)C(=O)C(C(=O)CC(C)C)=C1O`: the “tumour outcome (control, treated, inhibition, significance)” value (Carcinogen: 7,12-DIMETHYLBENZ[A]ANTHRACENE : 57-97-6, Dose [Inhibitor]: 0, 1 MG IN 100 µL ACETONE/DMSO (9:1) 2/WK FOR 17 WK APPLIED 30 MIN PRIOR TO EACH PROMOTER DOSE (STUDY DURATION: 18 WK), Route [Inhibitor]: DERMAL, Species: MOUSE, Strain/Sex: ICR/FEMALE, Target Tissue: Type of Lesion: SKIN: PAPILLOMA, Dose [Carcinogen]: 50 UG IN 100 µL ACETONE ONCE, Promoter: 12-O-TETRADECANOYLPHORBOL-13-ACETATE, 16561-29-8) was 100%, 7%, 93%, not calculated.
